Test results from patent US8933202B2, “AXL antibodies” (U3 Pharma GmbH, priority 2007, dated 2015).

Columns and labels:
Type in all cases: cell-based, human
[1] = tested on: NCI/ADR-RES ovarian cancer cells; test: TUNEL staining, combination with doxorubicin; conditions: 24 h
Description: As rat anti-Axl antibodies of the invention turned out to interfere with Gas6-mediated anti-apoptosis of serum-starved NIH3T3-Axl cl.7 fibroblasts, the question arose, whether antagonistic anti-Axl antibodies would synergize with chemotherapeutic agents in inducing apoptosis, thereby contributing to overcome drug resistance. In this example, NCI/ADR-RES (originally named MCF-7/AdrR) cells—a ovarian cancer cell line (Liscovitch and Ravid, 2007, Cancer Letters, 245, 350-352) displaying a high level of resistance to several agents including doxorubicin (Fairchild et al., 1987, Cancer Research, 47, 5141-5148; Xu et al., 2002, The Journal of Pharmacology and Experimental Therapeutics, 302, 963-971)—were incubated with the antagonistic anti-Axl antibody 11B7 and/or doxorubicin, and apoptosis rates were determined by TUNEL staining. In brief, 3×10^4 NCI/ADR-RES cells in normal growth medium were seeded per well of an 8-chamber culture slide (BD Falcon, cat#354118) which were pre-incubated with the same medium for 1 h at 37° C. The next morning, normal growth medium was removed and cells were washed with and cultured in serum-reduced (0.5% FCS) medium. In the evening, isotypic control antibody 1D5 or the antagonistic anti-Axl antibody 11B7 were added at final concentrations of 10 μg/ml each. In the morning of day 3, doxorubicin at final concentrations of 100 μM, 150 μM, or 200 μM was added, and cells were incubated at 37° C. After 24 h, cells were rinsed once with PBS, fixed with 4% formaldehyde in PBS (pH 7.5) for 20 min at room temperature, air-dried for 5 min, and stored at −20° C. Using the commercially available Fluorescein-FragEL™ kit (Oncogene, cat#QIA39, presently being distributed through Merck-Calbiochem), TUNEL staining was performed according to the supplier's manual instructions (chapter ‘Fluorescein-FragEL™ of cell preparations fixed on slides’, page 10). Applying fluorescence microscopy, cells were analyzed and photos were taken.

C-8161 melanoma cells = test: Soft agar colony formation assay, combination with cisplatin; conditions: 0.25 to 1.5 μM cisplatin, 5 days, compared to untreated control cells
Experimental: Soft agar assays were conducted in order to investigate the ability of anti-Axl antibodies of the invention to inhibit anchorage-independent cell growth either alone or in combination with chemotherapeutic agents. The soft agar colony formation assay is a standard in vitro assay to test for transformed cells, as only transformed cells are able to grow in soft agar.
In brief, 750 C-8161 melanoma cells either remained untreated or were pre-incubated with the antagonistic rat anti-Axl antibody 11B7 at 15 μg/ml in IMDM medium (Gibco) for 30 min at 37° C. Subsequently, cells were combined with Difco noble agar solution resulting in 50 μl of top agar cell suspension at concentrations of Agar, FCS, and 11B7 of 0.35%, 0.2%, and 7.5 μg/ml, respectively. This cell suspension was plated on top of 50 μl of a 0.7% agarose bottom layer containing 20% FCS, and was finally covered with another 50 μl of a feeding layer solution that contains 0.2% FCS as well as cisplatin in according concentrations. In the whole of 150 μl per sample, the final concentrations of 11B7 and cisplatin were 2.5 μg/ml and 1.5 μM, 1.0 μM, 0.75 μM, 0.5 μM, or 0.25 μM, respectively. Colonies were allowed to form for 5 days and were then stained with 50 μl MTT (Sigma, 1 mg/ml in PBS) for 3 hours at 37° C. Using a Scanalyzer HTS camera system in conjunction with the HTS Bonit colony formation software (Lemnatec, Wuerselen), the effect of the antagonistic rat anti-Axl antibody 11B7 in the absence or presence of cisplatin were analyzed in triplicates.

[2] = tested on: NCI-H292 lung cancer cells; test: Wound healing/scratch assay; conditions: 10 μg/ml antibody, 24 h, compared to isotypic control antibody
Description: To examine the migration and proliferation rates of different cells and culture conditions, in vitro wound healing/scratch assays are being employed for many years. These assays generally involve growing a confluent cell monolayer first. A small area is then disrupted and a group of cells are being destroyed or displaced by scratching a line through the layer with, for example, a pipette tip. The open gap is then inspected microscopically over time as the cells move in and fill the damaged area (“healing”). In brief, 1.5×10^6 NCI-H292 lung cancer cells were seeded per well of a 12 well dish and cultured in normal growth medium (RPMI, 10% FCS). After 8 h, cells were rinsed with PBS and starved in low serum medium (RPMI, 0.5% FCS) over night for 24 h. Using a sterile 200 μl pipette tip, three separate uniform wounds per well were scratched through the confluent NCI-H292 cell monolayers. […] Cells were permitted to migrate into the area of clearing for 24 h, washed once with PBS and fixed with ice cold Methanol (100%) at −20° C. After cells were stained with crystal violet (0.5% in 20% Methanol), rinsed with water and dried over night, photos of the wounds were taken.

## COc1cccc2c1C(=O)c1c(O)c3c(c(O)c1C2=O)C[C@@](O)(C(=O)CO)C[C@@H]3O[C@H]1C[C@H](N)[C@H](O)[C@H](C)O1 [doxorubicin, reference compound]
[1]; 100 μM doxorubicin + 10 μg/ml control antibody
  apoptosis (TUNEL staining), doxorubicin with control antibody, 100 μM: No TUNEL staining, and hence no apoptosis
[1]; 150 μM doxorubicin + 10 μg/ml control antibody
  apoptosis (TUNEL staining), doxorubicin with control antibody, 150 μM: only very week apoptosis

## N.N.[Cl][Pt][Cl] [cisplatin, reference compound]
C-8161 melanoma cells
  soft agar colony growth, cisplatin alone: colony growth retardation in a dose-dependent manner

B1: ch11B7-IgG2: chimeric anti-AXL antibody 11B7 with human IgG2 (antibody)
heavy: EVQLQESGPGLVKPSQSLSLTCSVTGYSITSNYWGWIRKFPGDKMEWMGYITYSGSTSYNPSLKSRISITRDTSKNQFFLQLNSVTSEDTATYYCAITTFYYWGQGVMVTVSSASTKGPSVFPLAPCSRSTSESTAALGCLVKDYFPEPVTVSWNSGALTSGVHTFPAVLQSSGLYSLSSVVTVPSSNFGTQTYTCNVDHKPSNTKVDKTVERKCCVECPPCPAPPVAGPSVFLFPPKPKDTLMISRTPEVTCVVVDVSHEDPEVQFNWYVDGVEVHNAKTKPREEQFNSTFRVVSVLTVVHQDWLNGKEYKCKVSNKGLPAPIEKTISKTKGQPREPQVYTLPPSREEMTKNQVSLTCLVKGFYPSDIAVEWESNGQPENNYKTTPPMLDSDGSFFLYSKLTVDKSRWQQGNVFSCSVMHEALHNHYTQKSLSLSPGK
light: DIQMTQAPSSLPASLGDRVTITCRASQDIGNYLRWFQQKPGKSPRLMISGATNLAAGVPSRFSGSRSGSDYSLTISSLESEDMADYYCLQSKESPWTFGGGTKLELKRTVAAPSVFIFPPSDEQLKSGTASVVCLLNNFYPREAKVQWKVDNALQSGNSQESVTEQDSKDSTYSLSSTLTLSKADYEKHKVYACEVTHQGLSSPVTKSFNRGEC
[2]
  re-population of the cleared area (wound closure): reduced the re-population of the cleared area

B2: Ch11D5-IgG2: chimeric anti-AXL antibody 11D5 with human IgG2 (antibody)
heavy: EVQLQESGPGLVKPSQSLSLTCSVTGYSITSNYWGWIRKFPGNKMEWIGHITNSGNTTYNPSLKSRISISRDTSRNQFFLQLNSVTTEDTATYYCAKGAFDYWGQGVMVTVSSASTKGPSVFPLAPCSRSTSESTAALGCLVKDYFPEPVTVSWNSGALTSGVHTFPAVLQSSGLYSLSSVVTVPSSNFGTQTYTCNVDHKPSNTKVDKTVERKCCVECPPCPAPPVAGPSVFLFPPKPKDTLMISRTPEVTCVVVDVSHEDPEVQFNWYVDGVEVHNAKTKPREEQFNSTFRVVSVLTVVHQDWLNGKEYKCKVSNKGLPAPIEKTISKTKGQPREPQVYTLPPSREEMTKNQVSLTCLVKGFYPSDIAVEWESNGQPENNYKTTPPMLDSDGSFFLYSKLTVDKSRWQQGNVFSCSVMHEALHNHYTQKSLSLSPGK
light: DIQMTQSPSSMSTSLGDRVTITCRASQDIGNYLSWFQQKVGKSPRRMIYGAIKLAVGVPSRFSGSRSGSDYSLTISSLESEDMAIYYCLQYIQFPLTFGSGTKLELKRTVAAPSVFIFPPSDEQLKSGTASVVCLLNNFYPREAKVQWKVDNALQSGNSQESVTEQDSKDSTYSLSSTLTLSKADYEKHKVYACEVTHQGLSSPVTKSFNRGEC
[2]
  re-population of the cleared area (wound closure): reduced the re-population of the cleared area
